The record followed here is patent US11384090B2, “Spiropyrrolidine derived antiviral agents” (priority 2020, dated 2022).

The subject of the first experiment is 229E human corona virus (hCoV). Kind of experiment: 229E live virus assay. The class given is cell-based, hCoV-229E. To be noted: Human coronavirus 229E, MRC5, 144 h, read-out: 229E EC50.
One may read the EC50 as the midpoint of the concentration-response curve. Turning to `CN(C(=O)c1cc2c(F)cc(F)cc2[nH]1)[C@@H](Cc1ccccc1)C(=O)N1C[C@]2(C[C@H]1C#N)C(=O)Nc1ccccc12` [Compound 81], the 50% effective concentration (EC50) was under 0.1 µM.

The experiment is the same for the next values; noted with them: MRC-5 cells, MOI 0.05, 6 days at 34° C., ATPlite readout, run in duplicate; read-out: 229E EC50.
As for `CC(C)C[C@@H](C(=O)N1C[C@]2(C[C@H]1C#N)C(=O)Nc1ccccc12)N(C)C(=O)OCc1ccccc1` [Compound 39], the EC50 was over 1 µM.

`COc1cccc2[nH]c(C(=O)N[C@@H](CC(C)C)C(=O)N3C[C@]4(C[C@H]3C#N)C(=O)Nc3ccccc34)cc12` [Compound 11]: the EC50 is under 0.1 µM.

For `COc1cccc2[nH]c(C(=O)N[C@H](CC(C)(C)C)C(=O)N3C[C@]4(C[C@H]3C#N)C(=O)Nc3ccccc34)cc12` [Compound 16], the EC50 fell in the range of 0.1 to 1 µM.

Consider `CCCN(C(=O)c1cc2c(F)cccc2[nH]1)[C@@H](CC(C)C)C(=O)N1C[C@]2(C[C@H]1C#N)C(=O)Nc1ccccc12` [Compound 98], for which the concentration for a half-maximal effect (EC50) fell in the range of 0.1 to 1 µM.

As for `CC(C)C[C@H](NC(=O)OCc1ccccc1)C(=O)N1C[C@]2(C[C@H]1C#N)C(=O)Nc1ccccc12` [Compound 1], the EC50 was 0.1 to 1 µM.

In the case of `CC(C)CC[C@@H](C(=O)N1C[C@]2(C[C@H]1C#N)C(=O)Nc1ccccc12)N(C)C(=O)c1cc2c(F)cc(F)cc2[nH]1` [Compound 104], the EC50 was under 0.1 µM.

As for `COc1cccc2[nH]c(C(=O)N[C@@H](CC(C)C)C(=O)N3C[C@]4(C[C@H]3C(=O)C(=O)NC3CC3)C(=O)Nc3ccccc34)cc12` [Compound 31], the EC50 lay within 0.1 to 1 µM.

On to `C=CCN(C(=O)OCc1ccccc1)[C@@H](CC(C)C)C(=O)N1C[C@]2(C[C@H]1C#N)C(=O)Nc1ccccc12` [Compound 96], for which the concentration for a half-maximal effect (EC50) was in the range of 0.1 to 1 µM.

Turning to `CCCN(C(=O)OCc1ccccc1)[C@@H](CC(C)C)C(=O)N1C[C@]2(C[C@H]1C#N)C(=O)Nc1ccccc12` [Compound 97], the half-maximal effective concentration (EC50) was over 1 µM.

`COc1cccc2[nH]c(C(=O)N[C@@H](CC3CCC3)C(=O)N3C[C@]4(C[C@H]3C#N)C(=O)Nc3ccccc34)cc12` [Compound 17]: the 50% effective concentration (EC50) was under 0.1 µM.

Regarding `CN(C(=O)c1cc2c(F)cc(F)cc2[nH]1)[C@@H](CC1CCC1)C(=O)N1C[C@]2(C[C@H]1C#N)C(=O)Nc1ccccc12` [Compound 91], the concentration giving a half-maximal response (EC50) was under 0.1 µM.

Regarding `COc1cccc2[nH]c(C(=O)N[C@H](CC(C)C)C(=O)N3C[C@]4(C[C@H]3C#N)C(=O)Nc3ccccc34)cc12` [Compound 12], the half-maximal effective concentration (EC50) lay within 0.1 to 1 µM.

Regarding `COc1cccc2[nH]c(C(=O)N[C@@H](CC(C)C)C(=O)N3C[C@]4(C[C@H]3C=O)C(=O)Nc3ccccc34)cc12` [Compound 23], the EC50 is under 0.1 µM.

`CN(C(=O)OCc1ccccc1)[C@@H](CC1CCC1)C(=O)N1C[C@]2(C[C@H]1C#N)C(=O)Nc1ccccc12` [Compound 89]: the EC50 lay within 0.1 to 1 µM.

The target of another experiment is SARS-CoV-2 3CL-protease (Severe acute respiratory syndrome coronavirus 2 (2019-nCoV) (SARS-CoV-2), UniProt P0DTD1). Kind of experiment: biochemical. To be noted: read-out: FRET IC50.
As usually defined, the IC50 is the point on the concentration scale where inhibition reaches its midpoint. As to `CC(C)C[C@@H](C(=O)N1C[C@]2(C[C@H]1C=O)C(=O)Nc1ccccc12)N(C)C(=O)OCc1ccccc1` [Compound 24], the concentration for half-maximal inhibition (IC50) lay within 0.1 to 1 µM.

For the compound `CN(C(=O)OCc1ccccc1)[C@@H](Cc1ccccc1)C(=O)N1C[C@]2(C[C@H]1C#N)C(=O)Nc1ccccc12` [Compound 41], the 50% inhibitory concentration (IC50) was under 0.1 µM.

As to `CC(C)(C)C[C@H](NC(=O)c1cc2c(F)cccc2[nH]1)C(=O)N1C[C@]2(C[C@H]1C#N)C(=O)Nc1ccccc12` [Compound 21], the concentration for half-maximal inhibition (IC50) is under 0.1 µM.
